Assay results from PMC4674085, “Towards Prebiotic Catalytic Amyloids Using High Throughput Screening” (PLoS ONE, 2015).
Ends that are not written are not given here.

Tests used:
[1] = Thioflavin T fluorescence (ThT); assay type: physicochemical; conditions: crude peptide fibrillized at 160 μM, mixed 10:1 with 50 μM ThT, ex 440 nm em 480 nm
Procedure: The samples of the amyloid library (50 mM HEPES pH 7.3 or 50 mM NaOAc pH 4) were mixed 10:1 with 50 μM ThT and the increase in fluorescence was measured in a 384-well plate in a BMG Pherastar platereader (ex: 440 nm em: 480 nm). The background signal from the peptides without ThT was subtracted from the one with the ThT present in the sample. Due to the large dynamic range of the signals among the many samples, the measurements were made at two different gain settings to ensure that all of the signals fell within the measureable range.
(§1) Table A and associated data: Biophysical characterization of library
Sequence ThT1 CD2 FTIR3 EM4 ThT CD FTIR EM X-ray5
1. Fold increase in ThT ﬂuorescence over background. […]

[2] = Plate reader 4NPA hydrolysis kinetics of purified peptide amyloids at pH 7.3; assay type: biochemical; conditions: 4NPA hydrolysis
Procedure: The reaction buffer consisted of the same buffer as the fibrillization buffer without ZnCl2 and with 1.33 mM 4NPA prepared from a 100 mM stock in CH3CN. The samples of the amyloid library were mixed 1:3 with the reaction buffer yielding 40 μM peptide and, when present 250 μM zinc(II). The absorbance measurements were performed in a BMG Pherastar platereader with a 400 nm band-pass filter (10 nm bandwidth) in 96-well Nunclon Delta surface plates or 384-well Greiner Bio-One non-bind black μclear plates.
The kinetics assays performed on the purified peptides were prepared similarly except that the peptide concentration was 20 μM in the reaction. Furthermore, the various substrate concentrations and replicate samples were randomly distributed over the plate to minimize systematic errors. Various 4NPA concentrations (i.e. 0.1 mM, 0.2 mM, 0.4 mM, 0.6 mM, 1.0 mM) were added from a 100 times stock so that the final CH3CN concentration was always 1%. The linear part of the hydrolysis activity was fit with an extinction coefficient of ε = 9700 M^-1cm^-1 and corrected for the background reaction rate of buffer alone (v bg = 5.0 × 10^-6 Ms^-1) to obtain the initial reaction rate v 0. The average of the initial reaction rates at each substrate concentration were then fit to the Michaelis-Menten type kinetics to obtain k cat, K M and k cat/K M always calculated per monomer peptide. The background reaction rate was obtained similarly using 5 replicates.

[3] = Transmission electron microscopy (TEM) of fibrils; assay type: physicochemical; design: key: +: ﬁbrils present; −: absent in EM micrographs; conditions: uranyl acetate stain
Procedure: The samples of the amyloid library (50 mM HEPES pH 7.3 or 50 mM NaOAc pH 4) were applied directly to glow-discharged carbon-coated grids, washed and then stained with uranyl acetate. Images were recorded on a Philips CM 12 electron microscope.
as §1
(§2) Sequence ThT1 CD2 FTIR3 EM4 ThT CD FTIR EM X-ray5 […]
4. (+) ﬁbrils present or (−) absent in EM micrographs. […]

[4] = ATR-FTIR, amide I peak of aggregates; assay type: physicochemical; design: key: indicates that no peak was observed within the typical range of stretching frequencies forβ-structure (between dashed lines at 1638 cm−1 and 1615 cm−1); conditions: air-dried pellet, crude peptide
Procedure: Samples were prepared as for the CD measurements, but instead of re-suspending the samples after centrifugation, 3 μl of H2O were added to the pellet so that it could be placed onto the diamond ATR cell of a Bruker Alpha-p ATR-FTIR spectrometer followed by air-drying before measuring the spectra. Blank subtraction was performed with an empty cell (air) and all measurements were performed without the pressure applicator.
as §1, §2
(§3) 3. The peak position in amide I region is given in cm−1. […]

[5] = Circular dichroism (CD), secondary structure of aggregates; assay type: physicochemical; design: key: β+: has minimum near 217 nm; β++: has minimum near 217 nm and a maximum near 197 nm; −: signal too weak to interpret; ?: spectra not typical of any secondary structure
Procedure: The concept of creating an amyloid library out of a peptide library is only meaningful if the vast majority of the peptides actually form amyloids in at least one of the conditions tested. To establish the validity of our amyloid library we measured circular dichroism (CD), Fourier transform infrared spectroscopy (ATR-FTIR), as well as thioflavin T (ThT) fluorescence of peptides 1–33 at pH 7.3 (50 mM HEPES) and pH 4 (50 mM NaOAc) (see interactive Table A and associated data in S1 File). Based on the analysis of the CD and ATR-FTIR spectra (shown in the interactive Table A in S1 File) all the peptides formed β-structured aggregates in at least one condition. Most of the 33 peptides induced a significant increase in ThT fluorescence in at least one condition. […] The fibrils from a selection of the active peptides were aligned and analyzed by X-ray diffraction (Figures C and D in S1 File). In each case we observed the cross-β diffraction pattern typical of amyloid fibrils, although the degree of sample alignment varied. For two samples, 14 and 27, the difference in meridional and equatorial diffraction intensities was small but easily detected in a plot of the angular dependence of the intensity (Figure D in S1 File). The conclusion that can be drawn out of the multiple analysis techniques is that the 33 peptides that comprise the library are overwhelmingly prone to form fibril-like, β-structured aggregates. The cross-β diffraction of the tested aggregates would imply that they are more specifically all amyloidogenic.
CD measurements were carried out on a Jasco J815. Samples were prepared by centrifuging the amyloid library at 25,000 g for 10 min and then removing the supernatant. The pellets were resuspended at an approximate concentration of 100 μg/ml in 10 mM HEPES pH 7.3 (for mixtures from 50 mM HEPES) or 10 mM NaOAc pH 4 (for mixtures from 50 mM NaOAc), the suspensions were then treated with an ultrasonic probe for 5 s, upon which the solutions were placed in 1 mm cuvettes, diluted as necessary to maintain the detector voltage below 600 V and scanned from 260–190 nm at 50 nm/min, 1 nm band-pass, 2 second integration, averaged over 3 repetitions.
as §1, §2
2. […]

[6] = Aggregation at pH 4 from soluble material left after 100,000 g centrifugation; assay type: physicochemical; conditions: 40 μM purified peptide, pH 4, soluble material in supernatant of 100,000 g centrifugation
[7] = NMR-based 4NPA hydrolysis assay at pH 4.3; assay type: biochemical; conditions: 4NPA hydrolysis by 1D-1H NMR, 50 mM d3-NaOAc pH 4.3, 2% d6-DMSO, 40 μM total purified peptide (mixture 20 μM each), 0.9 mM 4NPA, 25°C, over 15 days, first order fit, no zinc(II)
Procedure: Purified peptides were solubilized in deuterated DMSO with 1% TFA at a concentration of 4 mM and subsequently diluted to 160 μM in 50 mM deuterated NaOAc buffer at pH 4.3. In the case of the peptide mixture fibrillization (12/21), each peptide was 80 μM. Fibrillization occurred over 5 days after which the sample was diluted to 40 μM total peptide in 50 mM buffer with 0.9 mM 4NPA (from a 90 mM stock solution in d6-DMSO) and a final concentration of d6-DMSO of 2%. From this reaction mixture 500 μl was transferred to a 5 mm NMR tube and measurements were performed in a 600 MHz Bruker NMR spectrometer equipped with a cryo-probe.
The hydrolysis kinetics were monitored in a continuous series of 1D-^1H experiments each consisting of 32 scans at 25°C and each requiring 17 min. In this manner, several time segments lasting between 8 and 17 hours were collected over a period of 15 days. Between measurements, the samples were kept at 25°C.
Data processing and peak integration was performed with Topspin3.2 (Bruker). Relevant peaks used for the analysis were the 4 aromatic protons of both 4NPA and of its product (p-nitrophenol) as well as the methyl groups of 4NPA and acetic acid. The ratio of the sum of integrals for the product protons to the sum of integrals for all protons was used to calculate the substrate concentration. […]

[8] = X-ray fiber diffraction of aligned fibrils; assay type: physicochemical; conditions: washed pellets dried between glass capillaries, room temperature
Procedure: The samples were centrifuged, the pellet resuspended (ultrapure water or 10 mM NaOAc pH 4) and centrifuged again. The washed pellets were resuspended in a minimal amount of water and 4 μl of the suspension were pipetted between the melted ends of two glass capillaries, which were then left to dry overnight in a sealed petri dish. The dried material was placed in an X-ray beam (Rigaku MicroMax-007HF) at room temperature for a 20 min exposure and diffraction data was collected on a Mar345 image plate detector.
Table A and associated data: Biophysical characterization of library […]
1. Fold increase in ThT ﬂuorescence over background.
2. CD spectra classiﬁed as follows: (β+) has minimum near 217 nm, (β++) has minimum near 217 nm and a maximum near 197 nm, (−) signal too weak to interpret, (?) spectra not typical of any secondary […]
as §3
within the typical range of stretching frequencies forβ-structure (between dashed lines at 1638 cm−1 and […]
4. (+) ﬁbrils present or (−) absent in EM micrographs.
5. Diﬀraction images recorded for the aligned ﬁbrils of 5 diﬀerent peptides (see materials and methods).

[9] = Solubility of binary alternating Val/Ser peptides (supernatant vs precipitate, quantitated by total hydrolysis); assay type: physicochemical; conditions: 200 μM peptide, 50 mM HEPES buffer pH 7.3, fibrillization for 2 days
Description: A high β-aggregation propensity is essential for a combinatorial peptide library in the form of amyloids. To satisfy this requirement we profited from the well-documented observation that in aqueous environments, binary alternating sequences of hydrophobic-hydrophilic residues are prone to oligomerize into amphipathic β-structures. In these structures, the hydrophobic residues are buried at the interface of two β-sheets, leaving the hydrophilic residues on the surface. In keeping with the theme of a prebiotic fold, we wanted to use the shortest peptides that still guaranteed a high percentage of amyloidogenic peptides in the library. […]
For peptides that contain Tyr the concentration of the peptide was measured by diluting a 3–5 mM DMSO stock of the peptide 20-fold into 10 mM HCl and quickly measuring the UV spectrum to minimize the potential for aggregation (ε276 = 1500 M^-1cm^-1). Peptide 36 was quantitated during purification by C18 reversed phase HPLC using a calculated extinction coefficient of ε214 = 13963 M^-1cm^-1. The quantification of the VS peptides in Table 1 and peptide 34 was performed by total hydrolysis in 6 M HCl at 160°C for 2 h. The hydrolyzed samples were analyzed by C18 reversed-phase and the amount of Val or Ile was calculated by comparing the chromatographic peak areas to amino acid samples of known quantity.

[10] = pH 4.0, pellet (25,000 g, 10 min) resuspended ~100 μg/ml in 10 mM NaOAc pH 4, crude peptide
[11] = pH 7.3, pellet (25,000 g, 10 min) resuspended ~100 μg/ml in 10 mM HEPES pH 7.3, crude peptide

Ac-YVHVAVHV-NH2 [Peptide 28, Ac-YVHVAVHV-CONH2]
ThT, fold increase in ThT fluorescence over background ([1]; pH 4.0, 50 mM NaOAc): 1 fold | ThT, fold increase in ThT fluorescence over background ([1]; pH 7.3, 50 mM HEPES): 114 fold | k cat/K M ([2]; pH 7.3 HEPES with zinc(II), 20 μM purified peptide, 0.1-1.0 mM 4NPA, 1% CH3CN, A400, Michaelis-Menten fit, per monomer peptide, triplicate (duplicate for 8, 27, 34, 35)): 0.215 ± 0.007 M⁻¹ s⁻¹ | K M ([2]; pH 7.3 HEPES with zinc(II), 20 μM purified peptide, Michaelis-Menten fit): 1950 ± 230 µM | k cat ([2]; pH 7.3 HEPES with zinc(II), 20 μM purified peptide, Michaelis-Menten fit, per monomer peptide): 0.042±0.004 10^-2s^-1 | EM, fibrils in EM micrographs ([3]; pH 7.3, 50 mM HEPES): + | FTIR peak position in amide I region ([4]; pH 4.0 (50 mM NaOAc)): − | FTIR peak position in amide I region ([4]; pH 7.3 (50 mM HEPES)): 1624 cm⁻¹ | CD spectrum class [5, 10]: − | CD spectrum class [5, 11]: β+

Ac-YVHVSVHV-NH2 [Peptide 10, Ac-YVHVSVHV-CONH2]
ThT, fold increase in ThT fluorescence over background ([1]; pH 4.0, 50 mM NaOAc): 1 fold | ThT, fold increase in ThT fluorescence over background ([1]; pH 7.3, 50 mM HEPES): 29 fold | k cat/K M = k 2 from linear fit to v 0 = [E]0 k 2[S] ([2]; pH 7.3, plate reader A400, linear fit, triplicate (36 without replicates)): 0.172 ± 0.003 M⁻¹ s⁻¹ | EM, fibrils in EM micrographs ([3]; pH 7.3, 50 mM HEPES): + | FTIR peak position in amide I region ([4]; pH 4.0 (50 mM NaOAc)): − | FTIR peak position in amide I region ([4]; pH 7.3 (50 mM HEPES)): 1623 cm⁻¹ | CD spectrum class [5, 10]: − | CD spectrum class [5, 11]: β+

Ac-YVSVSVHV-NH2 [Peptide 12, Ac-YVSVSVHV-CONH2]
aggregation behaviour at pH 4 [6]: began to aggregate within minutes | ThT, fold increase in ThT fluorescence over background ([1]; pH 4.0, 50 mM NaOAc): 5 fold | ThT, fold increase in ThT fluorescence over background ([1]; pH 7.3, 50 mM HEPES): 183 fold | EM, fibrils in EM micrographs ([3]; pH 4.0, 50 mM NaOAc): + | FTIR peak position in amide I region ([4]; pH 4.0 (50 mM NaOAc)): 1621 cm⁻¹ | FTIR peak position in amide I region ([4]; pH 7.3 (50 mM HEPES)): 1623 cm⁻¹ | k cat/K M [7]: 6145.6±8.5 10^-6M^-1s^-1 | CD spectrum class [5, 11]: β++ | X-ray diffraction of aligned fibrils [8]: cross-β

VSVSVSV-NH2 [VSVSVSV-CONH2]
peptide in solution after centrifugation at 25,000 g [9]: less than 5%
